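Step 1: Grow cells in 96-well plates. Step 2: Expose to compound for 48 hours at 5 concentrations. Step 3: Interpolate endpoints linearly; if unreached, use highest concentration. Abbreviation: GI50, concentration required for 50% inhibition of growth. Definition used: TGI = concentration required for complete inhibition of growth.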
system: MDA-MB-468 breast; experiment: DTP human tumour cell line panel, 48 h

| Compound | GI50 [nM] | TGI [nM] |
| --- | --- | --- |
| CCCCC/C=C/C/C=C/CCCCCCCC1=NC(C)(C)CN1C(C)C | 1370 | 2720 |
| COc1cc([C@@H]2c3cc4c(cc3C(O[C@@H]3O[C@@H]5CO[C@@H](c6cccs6)OC5[C@H](O)[C@H]3O)C3COC(=O)[C@@H]32)OCO4)cc(OC)c1O (stereo not given in full) | 91.4 | 302 |
| C[C@]12CC[C@@H]3c4ccc(O)cc4CC[C@H]3[C@@H]1CC[C@@H]2NS(=O)(=O)c1ccc(C(F)(F)F)cc1 | 2180 | 6230 |
| CC12CCCC(CC(=O)c3[nH]c4ccccc4c31)C2 (stereo not given) | 375 | 4160 |
| Nc1nccc(-c2c(-c3ccc(F)cc3)ncn2CCCN2CCOCC2)n1 | > 6390 | > 25000 |
| CN1C(=O)N(c2ccccc2)C2N=C(N/N=C/c3ccccc3)SC21 (stereo not given) | 510 | > 100000 |
| COc1ccc(C(=O)/C=C/c2cccnc2Nc2cc(OC)c(OC)c(OC)c2)cc1 | 551 | 2760 |
| COc1cc(-c2c(C#N)c(N)n3c(nc4ccccc43)c2C#N)cc(Br)c1OC | 5540 | > 100000 |
| C[C@]12CC[C@@H]3c4ccc(O)cc4C[C@@H](CCCCCCCCCS(=O)CCCC(F)(F)C(F)(F)F)[C@H]3[C@@H]1CC[C@@H]2O (stereo not given in full) | > 100000 | > 100000 |
| COc1cc(Cn2c(-c3ccccc3)cc3c2-c2oncc2CC3)cc(OC)c1OC | 298 | 2210 |
| CCCNC(=S)N/N=C(\C)c1ccccn1 | < 10 | 109 |
| COc1ccc(OC(=O)O[C@H]2[C@H](O[C@H]3[C@@H](O)COC(O[C@H]4C[C@H]5[C@@H]6CC=C7C[C@@H](O)CC[C@]7(C)[C@H]6CC[C@]5(C)[C@H]4[C@H](C)C(=O)CCC(C)C)[C@@H]3OC(C)=O)OC[C@@H](O)[C@@H]2O)cc1 (stereo not given in full) | 37.3 | 4940 |
| Cc1[nH]c(N=Nc2ccccc2)nc1N=Nc1ccccc1 | 1920 | 5990 |
| COc1cccc(NCc2nnc(Nc3ccc(Cl)cc3)c3ccccc23)c1 | 1050 | 4730 |
| C=C1C(=O)O[C@H]2[C@H]1CC/C(COC(=O)/C=C\C(=O)NCc1ccc(Cn3c(=O)sn(-c4ccc(C#N)cc4)c3=O)cc1)=C\CC[C@@]1(C)O[C@@H]21 | 735 | 1670 |
| CCCCNC(=O)NS(=O)(=O)c1ccc(N2N=C(c3ccc(C)cc3C)CC2c2ccc(N(C)C)cc2)cc1 (stereo not given) | 2220 | 5820 |
| Cn1cc(C2=C(c3cn(CCCN=C(N)N)c4ccccc34)C(=O)NC2=O)c2ccccc21 | > 11200 | > 25000 |
| CCOC(=O)/C(O)=C(/C=NC(=S)c1ccncc1)C(=O)OCC | > 100000 | > 100000 |
| NC(N)=NC(N)=Nc1cc2ccccc2c2ccccc12 | 2810 | 14300 |
| Cc1cc(C)cc(Nc2cc(C)nc3nc(C(F)(F)F)nn23)c1 | 8300 | > 100000 |
| CC[C@H](C)[C@H](NC(=O)[C@H]1CCCCN1C)C(=O)N(C)[C@H](CCc1nc(C(=O)N[C@@H](Cc2ccccc2)C[C@H](C)C(=O)OC)cs1)C(C)C | 69.6 |  |
| CN(C)CCNc1ccc2ncc(C#Cc3cncc(C(=O)Nc4ccc(CN5CCN(C)CC5)c(C(F)(F)F)c4)c3)n2n1 | 617 | 1410 |
| COc1ccc(-c2cc3c(nn2)-c2ccccc2C3=O)cc1 | > 100000 | > 100000 |
| O=C(CCCSc1nc(-c2ccc(Cl)cc2)cc(-c2ccc(Cl)cc2)n1)NO | 1420 | 3480 |
| COc1ccc(-c2nc(-c3nc4ccc(C)cc4[nH]3)c3ccccn23)cc1 | 2320 | 7130 |
| C[C@]12CC[C@@H]3c4ccc(Oc5nc(N6CC6)nc(N6CC6)n5)cc4CC[C@H]3[C@@H]1CCC2=O | 2000 | 12600 |
| Cn1cc(-c2csc(-c3cccc(F)c3)n2)c2cccnc21 | 20000 | 55600 |
| COC(=O)[C@]12CCC(C)(C)C[C@H]1C1=CC[C@@H]3[C@@]4(C)C/C(=C/c5cccnc5)C(=O)C(C)(C)[C@@H]4CC[C@@]3(C)[C@]1(C)CC2 | 12300 | 47200 |

Source: PubChem BioAssay (NCI)
